For the assay, the system named is Staphylococcus haemolyticus CNCM I-4170. Description: Protocol A: in-vitro malodor inhibition (free thiol groups from Cys-Gly precursor, DTNB absorbance at 412 nm). In kind it is cell-based. To be noted: for inhibition at 0.0012 % / inhibition at 0.0025 % / inhibition at 0.005 % / inhibition at 0.0125 % / inhibition at 0.025 % / inhibition at 0.05 % / inhibition at 0.006 %: Staphylococcus haemolyticus, CNCMI4170, read-out: Ingredient Malodor Inhibition Value (%). The text has this:
Further details of such a screening and % inhibition measurement and definition are described further on in this application. The precursor used, which may also be in the form of a human sweat sample, typically generates malodorant sulfur compounds when acted upon by the Staphylococcus haemolyticus cells, or by a β-lyase present in such cells. The malodor inhibition coefficient, as defined herein, reflects the % of reduction in free SH groups generated in the above-mentioned medium by the enzymatic activity of the bacterial cells when in presence of the MOC ingredient or MOC composition in question, as compared to the same measurement in their absence. […] Alternatively, the bacterial cells can be replaced by a β-lyase present in said cells. […] Detection of enzymatic activity inhibition is measured via the sulfur groups, namely thiol groups, freed from the precursor bacterial transformation, by comparison with the reference experiment in the absence of the respective MOC ingredient, said sulfur groups being detected by interaction with DTNB, a known chemical detector system for thiols. The reaction can be monitored by absorbance reading at 412 nm. The procedure can be performed indifferently with either a purified or semi-purified enzyme or intact bacterial cells, as in the case described here. Malodor inhibition coefficient is measured as a function of the percentage of free thiol groups in the medium, over time, by an absorbance method, and reflects the reduction in malodor obtained in the presence of the MOC ingredients and compositions. […] At the end of the growth phase, the bacterial cells were harvested by centrifugation at 5000 rpm for 15 min. The cell pellet was then washed with 0.1 volumes of sterile potassium phosphate buffer 0.1 M, pH 7.5. […] The precursor was used at 0.17 mM final concentration. • Detection reagent DTNB • DTNB (5,5′-Dithio-bis-(2-nitrobenzoic acid; […]

Where [1] appears, read: Table 2, 0.0012 w/v % in medium.
Where [2] appears, read: Table 2, 0.0025 w/v % in medium.
[3] abbreviates: Table 2, 0.0125 w/v % in medium.

Counter-ions that a name gives are not always drawn. Like-named read-outs stand apart in the source and are kept apart here.

On to `CC(C)CCCC(C)CC=O` (centres unmarked) [3,7-Dimethyloctanal], for which, under setting [1], the inhibition (commonly the drop in the measured response relative to a control, in per cent) at 0.0012 % came out at 0%. For the same compound, the inhibition at 0.0025 % under setting [2] turned out to be 0%. For the same compound, the inhibition at 0.005 % (Table 2, 0.005 w/v % in medium) stood at 18.1%. The inhibition at 0.0125 % under setting [3] turned out to be 66.7%.

On to `CC1=CC2CC(C=O)C1CC2C(C)C` (centres unmarked) [8-Isopropyl-6-methyl-bicyclo[2.2.2]oct-5-ene-2-carbaldehyde], for which the inhibition at 0.0012 % under setting [1] worked out at 18.9%. The inhibition at 0.0025 % under setting [2] is 28.3%. Moreover, the inhibition at 0.005 % (Table 2, 0.005 w/v % in medium) was found to be 76.9%. Also, the inhibition at 0.0125 % under setting [3] stood at 84.5%. The inhibition at 0.025 % (Table 2, 0.025 w/v % in medium) is 82.9%. Further, where the note is “Table 2, 0.05 w/v % in medium”, the inhibition at 0.05 % worked out at 88.2%.

Consider `CC1=CC[C@H](/C=C/C(C)(C)C(C)O)C1(C)C` (single isomer, unassigned; (-)) [(-)-(1′R,E)-3,3-Dimethyl-5-(2′,2′,3′-trimethyl-3′-cyclopenten-1′-yl)-4-penten-2-ol], for which the “Ingredient Malodor Inhibition Value (%)” value reads like this: (0.0012 w/v % in medium) 0.00%; (0.0025 w/v % in medium) 27.39%; (0.006 w/v % in medium) 75.11%; (0.0125 w/v % in medium) 76.95%; (0.025 w/v % in medium) 76.65%.

Consider `CC=CCCCCCCCC=O` [9-Undecenal], for which the inhibition at 0.0012 % under setting [1] was found to be 0%. Besides, under setting [2], the inhibition at 0.0025 % was determined as 0%. For the same compound, the inhibition at 0.005 % (Table 2, 0.005 w/v % in medium) was determined as 62.4%. Besides, under setting [3], the inhibition at 0.0125 % is 89%. The inhibition at 0.025 % (Table 2, 0.025 w/v % in medium) amounted to 81.8%. The inhibition at 0.05 % (Table 2, 0.05 w/v % in medium) was determined as 77.9%.

Take `CC(C)(C)c1ccc(CCC=O)cc1` [Bourgeonal, 3-(4-tert-butylphenyl)propanal]: the inhibition at 0.0012 % (0.0012 w/v % in medium) is 4.15%. Besides, the inhibition at 0.0025 % (0.0025 w/v % in medium) worked out at 7.06%. Further, the inhibition at 0.006 % (0.006 w/v % in medium) amounted to 42.6%.

As to `O=C1CCCCCCCCCCC(=O)OCCO1` [1,4-Dioxacyclohexadecane-5,16-dione], the inhibition at 0.0012 % (0.0012 w/v % in medium) amounted to 0%. For the same compound, the inhibition at 0.0025 % (0.0025 w/v % in medium) worked out at 0%. For the same compound, under “0.006 w/v % in medium”, the inhibition at 0.006 % came out at 0%. In addition, for the setting “0.0125 w/v % in medium”, the inhibition at 0.0125 % was determined as 28.2%. For the same compound, the inhibition at 0.025 % (0.025 w/v % in medium) is 37.3%. Besides, the inhibition at 0.05 % (0.05 w/v % in medium) amounted to 36.5%.

As for `C=CC(C)(O)CCC=C(C)CCC=C(C)C` (centres unmarked) [Nerolidol], the inhibition at 0.0012 % (0.0012 w/v % in medium) was determined as 0%. Further, for the setting “0.0025 w/v % in medium”, the inhibition at 0.0025 % was determined as 6.52%. Also, where the note is “0.006 w/v % in medium”, the inhibition at 0.006 % stood at 53.5%. The inhibition at 0.0125 % (0.0125 w/v % in medium) is 56.9%. For the setting “0.025 w/v % in medium”, the inhibition at 0.025 % stood at 68.5%. Besides, the inhibition at 0.05 % (0.05 w/v % in medium) turned out to be 66.8%.

Consider `CCCCCCC/C=C/C=O` [(E)-2-Decenal], for which the inhibition at 0.0012 % under setting [1] stood at 22%. Under setting [2], the inhibition at 0.0025 % stood at 28.2%. Besides, for the setting “Table 2, 0.005 w/v % in medium”, the inhibition at 0.005 % was 66.6%. Under setting [3], the inhibition at 0.0125 % was found to be 90.1%. Moreover, the inhibition at 0.025 % (Table 2, 0.025 w/v % in medium) was 100%.

Consider `CC1(C)CCCC2(C)C1CCC1(C)OCCC12` (centres unmarked) [Ambrox ®, 8,12-epoxy-13,14,15,16-tetranorlabdane], for which the “Ingredient Malodor Inhibition Value (%)” value by setting is: (0.0012 w/v % in medium) 0.00%; (0.0025 w/v % in medium) 0.00%; (0.05 w/v % in medium) 18.23%; (0.1 w/v % in medium) 38.00%.

Turning to `CC1=CC[C@H](C(C)CC=O)CC1` (single isomer, unassigned; (+)) [(+)-(4R)-1-P-Menthene-9-carbaldehyde], the “Ingredient Malodor Inhibition Value (%)” value by setting is: under setting [1], 0.00%; under setting [2], 3.44%; (Table 2, 0.005 w/v % in medium) 34.61%; under setting [3], 81.68%; (Table 2, 0.025 w/v % in medium) 97.82%.

Consider `CCCCCCCCC=O` [Nonanal], for which the inhibition at 0.0012 % under setting [1] was determined as 5.26%. The inhibition at 0.0025 % under setting [2] stood at 5.08%. Also, the inhibition at 0.005 % (Table 2, 0.005 w/v % in medium) amounted to 40.2%. Besides, the inhibition at 0.0125 % under setting [3] came to 80.4%. Moreover, where the note is “Table 2, 0.025 w/v % in medium”, the inhibition at 0.025 % was found to be 94.8%. In addition, under “Table 2, 0.05 w/v % in medium”, the inhibition at 0.05 % was found to be 97.8%.

`CCCCCCCCCCC=CC=O` [2-Tridecenal (ethyl citrate solution), 2-Tridecenal]: the inhibition at 0.0012 % under setting [1] turned out to be 29%. Further, the inhibition at 0.0025 % under setting [2] turned out to be 40.2%. Besides, the inhibition at 0.005 % (Table 2, 0.005 w/v % in medium) stood at 50%. Under setting [3], the inhibition at 0.0125 % was 81%.

As for `CCC(C)CCCC(C)(C)O` (centres unmarked) [Tetrahydromyrcenol], the “Ingredient Malodor Inhibition Value (%)” value (0.0012 w/v % in medium) turned out to be 0.00%; the “Ingredient Malodor Inhibition Value (%)” value (0.0025 w/v % in medium) is 0.00%; the “Ingredient Malodor Inhibition Value (%)” value (0.006 w/v % in medium) is given as 0.00%; the “Ingredient Malodor Inhibition Value (%)” value (0.0125 w/v % in medium) is on record as 0.00%; the “Ingredient Malodor Inhibition Value (%)” value (0.025 w/v % in medium) is listed as 41.38%; the “Ingredient Malodor Inhibition Value (%)” value (0.05 w/v % in medium) is reported as 72.56%. Besides, where the note is “0.1 w/v % in medium”, the “Ingredient Malodor Inhibition Value (%)” value worked out at 66.63%.

`C[C@H]1[C@@H]2CC(C[C@@]13C=CC(=O)CC3)C2(C)C` (single isomer, unassigned; (+)): the “Ingredient Malodor Inhibition Value (%)” value by setting is: (0.0012 w/v % in medium) 0.00%; (0.0025 w/v % in medium) 14.02%; (0.006 w/v % in medium) 26.00%; (0.0125 w/v % in medium) 72.64%; (0.025 w/v % in medium) 75.94%; (0.05 w/v % in medium) 75.68%.

As to `CC(C)c1cccc(C(C)CC=O)c1` (centres unmarked) [3-(3-Isopropyl-1-phenyl)butanal], the “Ingredient Malodor Inhibition Value (%)” value by setting is: under setting [1], 16.63%; under setting [2], 30.10%; (Table 2, 0.005 w/v % in medium) 73.81%; under setting [3], 95.51%; (Table 2, 0.025 w/v % in medium) 99.45%; (Table 2, 0.05 w/v % in medium) 97.34%.

For the compound Vetyverone, the “Ingredient Malodor Inhibition Value (%)” value is, setting by setting: under setting [1], 10.9%; under setting [2], 10.40%; (Table 2, 0.005 w/v % in medium) 44.6%; (Table 2, 0.025 w/v % in medium) 47.1%; (Table 2, 0.05 w/v % in medium) 54.2%.

With `CCCCC/C=C/CCC=O` [(E)-4-Decenal], the inhibition at 0.0012 % under setting [1] stood at 22%. In addition, the inhibition at 0.0025 % under setting [2] came out at 28.2%. In addition, the inhibition at 0.005 % (Table 2, 0.005 w/v % in medium) was 66.6%. Under setting [3], the inhibition at 0.0125 % came to 90.1%. Besides, the inhibition at 0.025 % (Table 2, 0.025 w/v % in medium) amounted to 100%.

(Values after patent US20150297482A1, “MALODOR COUNTERACTING COMPOSITIONS AND METHOD FOR THEIR USE TO COUNTERACT SWEAT MALODOR” (FIRMENICH SA, priority 2009, published 2015).)
